The source of these data is patent US8765784B2, “Positive allosteric modulators of MGLUR2” (Merck Sharp & Dohme Corp., priority 2010, dated 2014).

Each structure is given as a SMILES string. pEC50: −log10 of the molar value.

For the assay, the target named is T1, human mGluR2 (Homo sapiens, UniProt Q14416).
T1 construct: expressed in transfected cells
In words: FLIPR Ca2+ mobilization assay, potentiation of mGluR2. In kind it is cell-based. The settings on record: CHO dhfr- cells expressing recombinant human mGluR2 and Gα16; potentiation after EC20 glutamate (900 nM); read-out: IC50 (Representative FLIPR EC50 Values). As to the method:
Activity in potentiating the mGluR2 receptor may be determined as follows. The compounds of the present invention are tested in a fluorescence laser imaging plate reader (FLIPR) based assay. This assay is a common functional assay to monitor Ca^2+ mobilization in whole cells expressing recombinant receptor coupled with a promiscuous G-protein. CHO dhfr-cells stably expressing recombinant human mGluR2 and Gα16 loaded with Fluo-4 AM (Invitrogen, Carlsbad Calif.) are treated with dose responses of compounds and the Ca^2+ response is monitored on a FLIPR384 (Molecular Devices, Sunnydale Calif.) for agonist activity. The potentiation response is monitored after a subsequent addition of an EC20 concentration of glutamate (900 nM). The maximum calcium response at each concentration of compound for agonist or potentiation are plotted as dose responses and the curves are fitted with a four parameters logistic equation giving EC50 and Hill coefficient using the iterative non linear curve fitting software program.

T1 sequence (Q14416 19-872): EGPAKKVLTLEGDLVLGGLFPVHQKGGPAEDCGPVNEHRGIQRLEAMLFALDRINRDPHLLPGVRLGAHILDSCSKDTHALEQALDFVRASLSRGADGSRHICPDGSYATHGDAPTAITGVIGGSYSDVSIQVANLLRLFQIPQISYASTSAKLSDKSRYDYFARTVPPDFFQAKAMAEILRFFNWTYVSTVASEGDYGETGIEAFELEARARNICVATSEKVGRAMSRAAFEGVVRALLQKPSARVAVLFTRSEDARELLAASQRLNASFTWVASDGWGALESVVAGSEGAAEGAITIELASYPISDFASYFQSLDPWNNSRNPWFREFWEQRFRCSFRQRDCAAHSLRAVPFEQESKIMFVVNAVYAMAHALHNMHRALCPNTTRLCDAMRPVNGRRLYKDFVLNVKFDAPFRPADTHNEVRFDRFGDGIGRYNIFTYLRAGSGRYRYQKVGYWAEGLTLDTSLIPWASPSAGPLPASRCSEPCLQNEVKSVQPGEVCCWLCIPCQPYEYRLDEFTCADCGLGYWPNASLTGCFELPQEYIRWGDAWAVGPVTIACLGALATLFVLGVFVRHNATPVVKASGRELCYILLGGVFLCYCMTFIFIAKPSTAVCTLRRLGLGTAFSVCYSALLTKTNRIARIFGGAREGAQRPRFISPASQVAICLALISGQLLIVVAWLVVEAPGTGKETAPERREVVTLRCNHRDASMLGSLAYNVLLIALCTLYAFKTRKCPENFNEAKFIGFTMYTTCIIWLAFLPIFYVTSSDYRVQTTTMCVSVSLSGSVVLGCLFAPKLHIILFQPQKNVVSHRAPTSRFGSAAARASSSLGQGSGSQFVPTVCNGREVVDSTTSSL

With `Cn1c(=O)n(CC(C)(C)C)c2ccc(-c3cc(Oc4ccnc(C#N)c4)ccc3C#N)nc21` [Compound 16-3, 4-{4-cyano-3-[1-(2,2-dimethylpropyl)-3-methyl-2-oxo-2,3-dihydro-1H-imidazo[4,5-b]pyridin-5-yl]phenoxy}pyridine-2-carbonitrile], the pEC50 is 8.10.

On to `Cn1c(=O)n(CC(C)(C)C)c2ccc(-c3cc(CN4CCS(=O)(=O)CC4)ccc3C#N)nc21` [Compound 21-11, 2-[1-(2,2-dimethylpropyl)-3-methyl-2-oxo-2,3-dihydro-1H-imidazo[4,5-b]pyridin-5-yl]-4-[(1,1-dioxidothiomorpholin-4-yl)methyl]benzonitrile], for which the pEC50 is 7.47.

With `Cn1c(=O)n(CC(C)(C)C)c2ccc(-c3cc(CN4CCN(S(C)(=O)=O)CC4)ccc3C#N)nc21` [Compound 21-45, 2-[1-(2,2-dimethylpropyl)-3-methyl-2-oxo-2,3-dihydro-1H-imidazo[4,5-b]pyridin-5-yl]-4-{[4-(methylsulfonyl)piperazin-1-yl]methyl}benzonitrile], the negative logarithm of the EC50 (pEC50) was 7.68.

For `CC(=O)N1CCN(Cc2ccc(C#N)c(-c3ccc4c(n3)n(C)c(=O)n4CC(C)(C)C)c2)CC1` [Compound 21-47, 4-[(4-acetylpiperazin-1-yl)methyl]-2-[1-(2,2-dimethylpropyl)-3-methyl-2-oxo-2,3-dihydro-1H-imidazo[4,5-b]pyridin-5-yl]benzonitrile], the pEC50 was 7.13.

For the molecule `COC(=O)NC(C)(C)c1ccc(C)c(-c2ccc3c(n2)n(C)c(=O)n3CC(C)(C)C)c1` [Compound 42-3, Methyl (1-{3-[1-(2,2-dimethylpropyl)-3-methyl-2-oxo-2,3-dihydro-1H-imidazo[4,5-b]pyridin-5-yl]-4-methylphenyl}-1-methylethyl)carbamate], the negative logarithm of the EC50 (pEC50) was 7.43.

In the case of `CC(=O)N1CCN(Cc2ccc(C)c(-c3ccc4c(n3)n(C)c(=O)n4CC(C)(C)C)c2)CC1` [Compound 51-9, 5-{5-[(4-acetylpiperazin-1-yl)methyl]-2-methylphenyl}-1-(2,2-dimethylpropyl)-3-methyl-1,3-dihydro-2H-imidazo[4,5-b]pyridin-2-one], the pEC50 is 6.65.

In the case of `Cc1ccc(CN2CCN(S(C)(=O)=O)CC2)cc1-c1ccc2c(n1)n(C)c(=O)n2CC(C)(C)C` [Compound 51-10, 1-(2,2-dimethylpropyl)-3-methyl-5-(2-methyl-5-{[4-(methylsulfonyl)piperazin-1-yl]methyl}phenyl)-1,3-dihydro-2H-imidazo[4,5-b]pyridin-2-one], the pEC50 was 7.59.

Turning to `Cc1ccc(CN2CCN(S(C)(=O)=O)CC2)cc1-c1ccc2c(n1)n(C)c(=O)n2CC1CC1(F)F` (stereo not shown) [Compound 56-4, 1-[(2,2-difluorocyclopropyl)methyl]-3-methyl-5-(2-methyl-5-{[4-(methylsulfonyl)piperazin-1-yl]methyl}phenyl)-1,3-dihydro-2H-imidazo[4,5-b]pyridin-2-one], the pEC50 is 7.46.

For the molecule `Cn1c(=O)n(CC(C)(C)C)c2ccc(-c3cccc(C(C)(C)O)c3F)nc21` [Compound 60-1, 1-(2,2-dimethylpropyl)-5-[2-fluoro-3-(1-hydroxy-1-methylethyl)phenyl]-3-methyl-1,3-dihydro-2H-imidazo[4,5-b]pyridin-2-one], the pEC50 was 7.60.

For the molecule `Cn1c(=O)n(CC(C)(C)C)c2ccc(-c3cccc(CN4CCc5onc(O)c5C4)c3F)nc21` [Compound 61-4, 1-(2,2-dimethylpropyl)-5-{2-fluoro-3-[(3-hydroxy-6,7-dihydroisoxazolo[4,5-c]pyridin-5(4H)-yl)methyl]phenyl}-3-methyl-1,3-dihydro-2H-imidazo[4,5-b]pyridin-2-one], the negative logarithm of the EC50 (pEC50) is 7.96.

As for `CC(O)C(=O)N1CCCC(c2cccc(-c3ccc4c(n3)n(C)c(=O)n4CC(C)(C)C)c2)C1` (stereo not shown) [Compound 65-6, 1-(2,2-dimethylpropyl)-5-{3-[1-(2-hydroxypropanoyl)piperidin-3-yl]phenyl}-3-methyl-1,3-dihydro-2H-imidazo[4,5-b]pyridin-2-one], the negative logarithm of the EC50 (pEC50) was 7.55.

For the molecule `Cn1c(=O)n(CC(C)(C)C)c2ccc(-c3cccc(N4CCN(C(=O)c5ccon5)CC4)c3)nc21` [Compound 66-4, 1-(2,2-dimethylpropyl)-5-{3-[4-(isoxazol-3-ylcarbonyl)piperazin-1-yl]phenyl}-3-methyl-1,3-dihydro-2H-imidazo[4,5-b]pyridin-2-one], the negative logarithm of the EC50 (pEC50) is 7.35.

As for `Cc1ccc(CC(C)(C)O)cc1-c1ccc2c(n1)n(C)c(=O)n2CC(C)(C)C` [Compound 81-3, 1-(2,2-dimethylpropyl)-5-[5-(2-hydroxy-2-methylpropyl)-2-methylphenyl]-3-methyl-1,3-dihydro-2H-imidazo[4,5-b]pyridin-2-one], the pEC50 was 7.37.
